According to article PMC6631481, “De Novo Design and In Vitro Testing of Antimicrobial Peptides against Gram-Negative Bacteria” (Pharmaceuticals, 2019):
No end group written: not given here.

Tested on: Escherichia coli ATCC 25922
Format: cell-based
Method: The MICs of the designed cationic peptides against Escherichia coli ATCC 25,922 strains were determined by the broth microdilution method, as described by Hancock et al.. All MIC evaluations were performed using Luria Bertani (LB) medium. Briefly, a range of each peptide concentrations (100 µg/mL, 50 µg/mL, 25 µg/mL, 12.5 µg/mL, 6.25 µg/mL, 3.125 µg/mL) was prepared by serial dilution in NaCl-depleted LB medium and added to an equal volume (250 µl) of exponentially grown bacterial culture, so that final bacterial suspension contained 5 × 10^5 CFU/mL. The samples were incubated in 2 mL polypropylene microtubes at 37 °C overnight at 300 rpm. The MIC was defined as the concentration at which no microbial growth was detected spectrophotometrically, via readings of optical density (OD) at 600 nm (Biotek ELX800 microplate reader). Growth medium containing only bacterial cells was used as a negative control. Each MIC test was carried out in two replicates and repeated three times.

Substance	MIC At NaCl	MIC Without NaCl
IRPAKLRWFKKIK-NH2 [SP5]	>100 mg/L	12.5 to 25 mg/L
IRRRIRLIVRRQI-NH2 [SP12]	12.5 to 25 mg/L	1.56 to 3.125 mg/L
IRRWRLHWFRRAI-NH2 [SP11]	12.5 to 25 mg/L	3.125 to 6.25 mg/L
KFRKFGKQVWVRL-NH2 [SP8]	12.5 to 25 mg/L	3.125 to 6.25 mg/L
KVWSRLRKIFSTR-NH2 [SP9]	6.25 to 12.5 mg/L	3.125 to 6.25 mg/L
NAMRGAKRVWRHI-NH2 [SP7]	>100 mg/L	50 to 100 mg/L
RLFIKKLKFITRR-NH2 [SP6]	25 to 50 mg/L	3.125 to 6.25 mg/L
RWIRWVWRKKLR-NH2 [SP15]	3.125 to 6.25 mg/L	0.78 to 1.56 mg/L
RWIRWVWRKKLRI-NH2 [SP14]	12.5 to 25 mg/L	3.125 to 6.25 mg/L
